Read-outs that look alike come from different tables or passages of the source. One block for each compound: values may come before it.
What was measured:
Plasmodium Falciparum = assay: Activity against Plasmodium falciparum in vitro, G-3H-hypoxanthine incorporation; format: cell-based; details: cultures incubated for 48 hours, RPMI 1640 medium + 10% human plasma, read-out: In vitro IC₅₀
Procedure: The test method was modification of that described by Desjardins et al., Antimicrob. Agents and Chemotherapy 1979, 16, 710-718. Compounds were dissolved in ethanol at a concentration of 4.8x10⁻³M and dilutions down to 1x10⁻⁴M were made. The drug solutions were serially diluted using RPMI 1640 medium + 10% human plasma in microtitration plates. Parasitised and fresh red blood cells were added, together with G-³H-hypoxanthine, in RPMI 1640 medium + 10% human plasma and the cultures incubated for 48 hours. Cultures were then harvested, the particulate contents collected on a glass fibre filter paper and washed copiously with water. The filter papers were dried and the radioactivity measured using a scintillation counter. Infected untreated and uninfected untreated cultures were included as controls.

Plasmodium yoelii = assay: Activity against Plasmodium yoelii in vivo, tail-blood smears at 96 hours; set-up: species or system mice; details: for ED50: Plasmodium yoelii, in Mus musculus, 96 h
Procedure: The naphthoquinone was suspended in 0.25% (w/v) celacol in water by milling for 16-24 hours at 26°C. The suspensions were subsequently serially diluted with 0.25% (w/v) celacol in water. At time 0, 0.1 ml of a suspension of 5x10⁶ P.yoelii-parasitised red blood cells/ml of phosphate saline were injected intravenously into 15-20 g mice through a tail vein. Groups of 5 mice per treatment were dosed orally at times 6, 22, 30, 46, 54, 70 and 78 hours with 0.2 ml of the drug suspension. The compound of Example 4 was also administered intravenously. Tail-blood smears were taken at 96 hours, stained with Giemsa and the percentage of red blood cells infected determined and compared to untreated, infected controls. Percent inhibition was correllated with dose to provide ED values.

[1] = Water-solubility compared with the parent compound; format: physicochemical; details: as compared with the parent compound of formula (V)
[2] = test system: Pneumocystis carinii pneumonia; details: cited from earlier work
Pneumocystis carinii = assay: Prophylaxis of Pneumocystis carinii pneumonitis in dexamethasone-treated rats, lung histopathology score; format: in vivo; details: for No.with P. carinii Pneumonitis Total: per rats evaluated
Procedure: A: 2-[trans-4-(4-chlorophenyl)cyclohexyl]-3-hydroxy-1,4-naphthoquinone B: 2-[cis-4-(4-chlorophenyl)cyclohexyl]-3-hydroxy-1,4-naphthoquinone C: 2-[4-(4-chlorophenyl)cyclohexyl]-3-chloro-1,4-naphthoquinone D: 2-(4-t-butylcyclohexyl)-3-hydroxy-1,4-naphthoquinone E: 2-(4-t-butylcyclohexylmethyl)-3-hydroxy-1,4-naphthoquinone a) Prophylaxis Groups of 10 rats were treated with dexamethasone to allow latent Pneumocystis carinii infection to develop. Tetracycline was also administered to protect against bacterial infections. Test compound A was administered, by gavage, from day 4 of the dexamethasone treatment, at a dose of 100 mg/kg/day. Two control groups of rats were treated with dexamethasone and tetracycline only. A further group of rats was given cotrimoxazole (trimethoprim + sulphamethoxazole, 50 + 250 mg/kg/day, orally) in place of the test compound. At the end of the test period the animals were sacrificed and autopsies carried out. The lungs were removed and the right lung bisected. An imprint was made onto microscope slides and stained with toluidine blue. One half of the lung was placed in formalin, processed in paraffin blocks, sectioned and stained by the Gomori methanamine silver nitrate method. After autopsy the extent of P.carinii pneumonitis was scored under coded study as none if no organism seen; 1+ if P.carinii cysts seen sparsely distributed with less than one per 25 high power field (h.p.f.); 2+ if focal areas of P.carinii pneumonitis surrounded by 10 to 25 h.p.f of normal lung and 3+ if lung diffusely and extensively involved with organisms in almost all h.p.f.s.
b) Prophylaxis A further series of tests was carried out using the same general method as described above. Test compound A was administered at various dose levels, by gavage and in the diet.

[3] = po, dosed orally at 6, 22, 30, 46, 54, 70 and 78 hours, read-out: In vivo ED₅₀ oral
[4] = 100 mg per kg/day, gavage, group of 10 rats
[5] = 100 mg per kg/day, gavage, group of 15 rats
[6] = 100 mg/kg/day by gavage from day 4 of dexamethasone treatment

IC50 (Plasmodium Falciparum): 220 nM
SMILES: CN(C)c1ccc(C(=O)OC2=C([C@H]3CC[C@H](c4ccc(Cl)cc4)CC3)C(=O)c3ccccc3C2=O)cc1 [Example 7, 2-[trans-4-(4-Chlorophenyl)cyclohexyl]-3-(4-dimethylaminobenzoyloxy)-1,4-naphthoquinone]
ED50 (Plasmodium yoelii; [3]): 0.12 mg/kg

IC50 (Plasmodium Falciparum): 59 nM
SMILES: CN(C)CCCOC1=C([C@H]2CC[C@H](c3ccc(Cl)cc3)CC2)C(=O)c2ccccc2C1=O.Cl [Example 4, 2-[trans-4-(4-Chlorophenyl)cyclohexyl]-3-(3-dimethylaminopropoxy)-1,4-naphthoquinone hydrochloride]
ED50 (Plasmodium yoelii; iv, administered intravenously, read-out: In vivo ED₅₀ i.v.): 2.08 mg/kg | ED50 (Plasmodium yoelii; [3]): 0.61 mg/kg | In vivo ED₅₀ oral (Plasmodium yoelii; dosed orally at 6, 22, 30, 46, 54, 70 and 78 hours, hydrochloride, 5760 min): 0.68 mg/kg

IC50 (Plasmodium Falciparum): 1140 nM
SMILES: NC1=C([C@H]2CC[C@H](c3ccc(Cl)cc3)CC2)C(=O)c2ccccc2C1=O [Example 3, 2-Amino-3-[trans-4-(4-chlorophenyl)cyclohexyl]-1,4-naphthoquinone]
ED50 (Plasmodium yoelii; [3]): 1.26 mg/kg

IC50 (Plasmodium Falciparum): 80 nM
SMILES: CCOC(=O)OC1=C([C@H]2CC[C@H](c3ccc(Cl)cc3)CC2)C(=O)c2ccccc2C1=O [Example 6, 2-Ethoxycarbonyloxy-3-[trans-4-(4-chlorophenyl)cyclohexyl]-1,4 naphthoquinone]
ED50 (Plasmodium yoelii; [3]): 0.09 mg/kg

Continued, compound first:

SMILES: CC(=O)OC1=C([C@H]2CC[C@H](c3ccc(Cl)cc3)CC2)C(=O)c2ccccc2C1=O [Example 5, 2-Acetoxy-3-[trans-4-(4-chlorophenyl)cyclohexyl]-1,4-naphthoquinone]
water-solubility [1]: improved | IC50 (Plasmodium Falciparum): 68 nM | ED50 (Plasmodium yoelii; [3]): 0.12 mg/kg

SMILES: N=C(N)c1ccc(OCCCCCOc2ccc(C(=N)N)cc2)cc1 [pentamidine]
incidence of adverse reactions ([2]; AIDS patients): around 50% | effective in AIDS patients ([2]; treatment of Pneumocystis carinii pneumonia): 50-70%

SMILES: O=C1C(O)=C([C@H]2CC[C@H](c3ccc(Cl)cc3)CC2)C(=O)c2ccccc21 [Example 1C, 2-[trans-4-(4-Chlorophenyl)cyclohexyl]-3-hydroxy-1,4-naphthoquinone]
No.with P. carinii Pneumonitis 1+ (Pneumocystis carinii; 10 mg per kg/day, gavage): 1 | No.with P. carinii Pneumonitis 2+ (Pneumocystis carinii; 10 mg per kg/day, gavage): 0 | No.with P. carinii Pneumonitis 3+ (Pneumocystis carinii; 10 mg per kg/day, gavage): 8 | No.with P. carinii Pneumonitis None (Pneumocystis carinii; 10 mg per kg/day, gavage): 1 | No.with P. carinii Pneumonitis Total (Pneumocystis carinii; 10 mg per kg/day, gavage): 9/10 | No.with P. carinii Pneumonitis 1+ (Pneumocystis carinii; 25 mg per kg/day, gavage): 2 | No.with P. carinii Pneumonitis 2+ (Pneumocystis carinii; 25 mg per kg/day, gavage): 1 | No.with P. carinii Pneumonitis 3+ (Pneumocystis carinii; 25 mg per kg/day, gavage): 4 | No.with P. carinii Pneumonitis None (Pneumocystis carinii; 25 mg per kg/day, gavage): 1 | No.with P. carinii Pneumonitis Total (Pneumocystis carinii; 25 mg per kg/day, gavage): 7/8 | No.with P. carinii Pneumonitis 1+ (Pneumocystis carinii; 50 mg per kg/day, gavage): 0 | No.with P. carinii Pneumonitis 2+ (Pneumocystis carinii; 50 mg per kg/day, gavage): 1 | No.with P. carinii Pneumonitis 3+ (Pneumocystis carinii; 50 mg per kg/day, gavage): 1 | No.with P. carinii Pneumonitis None (Pneumocystis carinii; 50 mg per kg/day, gavage): 7 | No.with P. carinii Pneumonitis Total (Pneumocystis carinii; 50 mg per kg/day, gavage): 2/9 | No.with P. carinii Pneumonitis 1+ (Pneumocystis carinii; [4]): 1 | No.with P. carinii Pneumonitis 2+ (Pneumocystis carinii; [4]): 0 | No.with P. carinii Pneumonitis 3+ (Pneumocystis carinii; [4]): 0 | No.with P. carinii Pneumonitis None (Pneumocystis carinii; [4]): 8 | No.with P. carinii Pneumonitis Total (Pneumocystis carinii; [4]): 1/9 | No.with P. carinii Pneumonitis 1+ (Pneumocystis carinii; [5]): 0 | No.with P. carinii Pneumonitis 2+ (Pneumocystis carinii; [5]): 0 | No.with P. carinii Pneumonitis 3+ (Pneumocystis carinii; [5]): 0 | No.with P. carinii Pneumonitis None (Pneumocystis carinii; [5]): 9 | No.with P. carinii Pneumonitis Total (Pneumocystis carinii; [5]): 0/9 | No.with P. carinii Pneumonitis 1+ (Pneumocystis carinii; 100 mg per kg/day, rations): 0 | No.with P. carinii Pneumonitis 2+ (Pneumocystis carinii; 100 mg per kg/day, rations): 0 | No.with P. carinii Pneumonitis 3+ (Pneumocystis carinii; 100 mg per kg/day, rations): 0 | No.with P. carinii Pneumonitis None (Pneumocystis carinii; 100 mg per kg/day, rations): 10 | No.with P. carinii Pneumonitis Total (Pneumocystis carinii; 100 mg per kg/day, rations): 0/10 | No of rats with P.carinii Pneumonitis 1+ (Pneumocystis carinii; [6]): 0 | No of rats with P.carinii Pneumonitis 2+ (Pneumocystis carinii; [6]): 0 | No of rats with P.carinii Pneumonitis 3+ (Pneumocystis carinii; [6]): 0 | No of rats with P.carinii Pneumonitis None (Pneumocystis carinii; [6]): 8 | No of rats with PCP/No of rats tested (Pneumocystis carinii; [6]): 0/8 | No.with P. carinii Pneumonitis 1+ (Pneumocystis carinii; 200 mg per kg/day, rations): 0 | No.with P. carinii Pneumonitis 2+ (Pneumocystis carinii; 200 mg per kg/day, rations): 0 | No.with P. carinii Pneumonitis 3+ (Pneumocystis carinii; 200 mg per kg/day, rations): 0 | No.with P. carinii Pneumonitis None (Pneumocystis carinii; 200 mg per kg/day, rations, Gomori-Grocott stain): 9 | No.with P. carinii Pneumonitis Total (Pneumocystis carinii; 200 mg per kg/day, rations): 0/9 | IC50 (Plasmodium Falciparum): 2 nM | ED50 (Plasmodium yoelii; [3]): 0.03 mg/kg

SMILES: COC1=C([C@H]2CC[C@H](c3ccc(Cl)cc3)CC2)C(=O)c2ccccc2C1=O [Example 2, 2-Methoxy-3-[trans-4-(4-chlorophenyl)cyclohexyl]-1,4-naphthoquinone]
IC50 (Plasmodium Falciparum): 360 nM | ED50 (Plasmodium yoelii; [3]): 5.8 mg/kg

Reference: EP0580185A1, “Medicaments” (THE WELLCOME FOUNDATION LIMITED, priority 1988, dated 1990)
